Assay results as given in the kinase profiling compilation of Christmann-Franck et al. (2016).
Values joined by “and” are separate entries in the source; they are usually repeats but may differ in a detail not shown here. Identical values can stand only once.

Experiments:
PLK1 (human) = PLK1 (human) (UniProt P53350)
PRKACA (human) = PRKACA (human) (UniProt P17612)
CDK2 CCNA2 (human) = CDK2 CCNA2 (human) (UniProt P20248+P24941)
HIPK2 (human) = HIPK2 (human) (UniProt Q9H2X6)
MARK3 (human) = MARK3 (human) (UniProt P27448)
PDPK1 (human) = PDPK1 (human) (UniProt O15530)
MAPKAPK2 (human) = MAPKAPK2 (human) (UniProt P49137)
FLT1 (human) = FLT1 (human) (UniProt P17948)
MAPK11 (human) = MAPK11 (human) (UniProt Q15759)
AURKB (human) = AURKB (human) (UniProt Q96GD4)
PRKCA (human) = PRKCA (human) (UniProt P17252)
PKN2 (human) = PKN2 (human) (UniProt Q16513)
IKBKE (human) = IKBKE (human) (UniProt Q14164)
IGF1R (human) = IGF1R (human) (UniProt P08069)
EPHB3 (human) = EPHB3 (human) (UniProt P54753)
SYK (human) = SYK (human) (UniProt P43405)
CHEK2 (human) = CHEK2 (human) (UniProt O96017)
MELK (human) = MELK (human) (UniProt Q14680)
GSK3B (human) = GSK3B (human) (UniProt P49841)
PRKCZ (human) = PRKCZ (human) (UniProt Q05513)
PAK4 (human) = PAK4 (human) (UniProt O96013)
BTK (human) = BTK (human) (UniProt Q06187)
IKBKB (human) = IKBKB (human) (UniProt O14920)
MAPK12 (human) = MAPK12 (human) (UniProt P53778)
SRPK1 (human) = SRPK1 (human) (UniProt Q96SB4)
ROCK2 (rat) = conditions: accession and sequence are those of the human protein
MAPK8 (human) = MAPK8 (human) (UniProt P45983)
CHEK1 (human) = CHEK1 (human) (UniProt O14757)
MAP2K1 (human) = MAP2K1 (human) (UniProt Q02750)
DYRK2 (human) = DYRK2 (human) (UniProt Q92630)
PRKAA1 or PRKAA2 (rat) = conditions: accession and sequence are those of the human protein
CAMKK2 (human) = CAMKK2 (human) (UniProt Q96RR4)
MAPKAPK5 (human) = MAPKAPK5 (human) (UniProt Q8IW41)
FGFR1 (human) = FGFR1 (human) (UniProt P11362)

Sequence of MAPKAPK5 (human) (Q8IW41 whole entry, looked up): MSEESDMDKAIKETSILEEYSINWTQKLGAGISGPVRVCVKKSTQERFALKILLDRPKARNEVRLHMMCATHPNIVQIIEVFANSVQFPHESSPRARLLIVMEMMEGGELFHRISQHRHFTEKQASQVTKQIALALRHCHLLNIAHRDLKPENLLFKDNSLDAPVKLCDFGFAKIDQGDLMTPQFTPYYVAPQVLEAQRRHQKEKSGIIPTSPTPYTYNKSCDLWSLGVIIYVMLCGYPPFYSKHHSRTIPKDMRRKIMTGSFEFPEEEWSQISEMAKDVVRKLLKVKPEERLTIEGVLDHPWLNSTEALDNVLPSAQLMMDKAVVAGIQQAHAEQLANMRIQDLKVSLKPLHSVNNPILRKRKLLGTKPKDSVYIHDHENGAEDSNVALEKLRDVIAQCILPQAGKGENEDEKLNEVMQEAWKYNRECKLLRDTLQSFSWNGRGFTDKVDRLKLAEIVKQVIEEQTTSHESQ
Sequence of MAPKAPK2 (human) (P49137 whole entry, looked up): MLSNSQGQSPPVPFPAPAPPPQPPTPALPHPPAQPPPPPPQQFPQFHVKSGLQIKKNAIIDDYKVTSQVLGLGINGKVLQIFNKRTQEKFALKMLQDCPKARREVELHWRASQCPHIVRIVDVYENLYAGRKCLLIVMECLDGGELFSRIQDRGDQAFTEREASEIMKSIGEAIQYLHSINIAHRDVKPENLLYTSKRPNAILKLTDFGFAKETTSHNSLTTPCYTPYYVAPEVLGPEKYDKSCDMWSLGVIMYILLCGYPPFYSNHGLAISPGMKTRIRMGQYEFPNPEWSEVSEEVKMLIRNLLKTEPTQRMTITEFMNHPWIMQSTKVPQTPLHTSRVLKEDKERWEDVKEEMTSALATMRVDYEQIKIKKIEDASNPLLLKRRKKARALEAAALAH
Sequence of EPHB3 (human) (P54753 whole entry, looked up): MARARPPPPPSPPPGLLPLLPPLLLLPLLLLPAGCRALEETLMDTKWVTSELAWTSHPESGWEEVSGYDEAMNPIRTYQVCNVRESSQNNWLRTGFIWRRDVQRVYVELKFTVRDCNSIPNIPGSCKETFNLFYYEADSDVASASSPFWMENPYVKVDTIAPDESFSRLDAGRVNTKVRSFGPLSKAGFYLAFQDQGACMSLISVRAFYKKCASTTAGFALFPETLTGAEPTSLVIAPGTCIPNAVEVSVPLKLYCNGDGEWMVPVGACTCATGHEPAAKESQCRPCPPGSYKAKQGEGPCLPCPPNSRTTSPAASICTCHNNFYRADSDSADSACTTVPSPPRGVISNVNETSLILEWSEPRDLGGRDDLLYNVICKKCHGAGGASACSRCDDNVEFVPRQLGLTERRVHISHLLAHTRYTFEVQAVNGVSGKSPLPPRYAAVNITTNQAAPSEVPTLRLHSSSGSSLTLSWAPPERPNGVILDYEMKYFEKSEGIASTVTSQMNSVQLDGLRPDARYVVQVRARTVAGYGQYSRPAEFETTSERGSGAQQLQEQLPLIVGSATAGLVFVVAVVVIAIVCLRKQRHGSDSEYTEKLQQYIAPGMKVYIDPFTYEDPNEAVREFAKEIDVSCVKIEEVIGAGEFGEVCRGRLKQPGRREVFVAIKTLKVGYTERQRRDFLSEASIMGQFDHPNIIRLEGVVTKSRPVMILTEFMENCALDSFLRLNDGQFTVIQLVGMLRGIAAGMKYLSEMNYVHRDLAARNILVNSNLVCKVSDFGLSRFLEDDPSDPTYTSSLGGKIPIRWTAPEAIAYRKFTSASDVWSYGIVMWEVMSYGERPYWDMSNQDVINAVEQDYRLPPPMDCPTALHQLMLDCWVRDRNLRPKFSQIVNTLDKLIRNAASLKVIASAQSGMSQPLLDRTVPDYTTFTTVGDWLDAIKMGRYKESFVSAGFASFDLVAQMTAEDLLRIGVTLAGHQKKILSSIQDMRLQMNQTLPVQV
Sequence of AURKB (human) (Q96GD4 whole entry, looked up): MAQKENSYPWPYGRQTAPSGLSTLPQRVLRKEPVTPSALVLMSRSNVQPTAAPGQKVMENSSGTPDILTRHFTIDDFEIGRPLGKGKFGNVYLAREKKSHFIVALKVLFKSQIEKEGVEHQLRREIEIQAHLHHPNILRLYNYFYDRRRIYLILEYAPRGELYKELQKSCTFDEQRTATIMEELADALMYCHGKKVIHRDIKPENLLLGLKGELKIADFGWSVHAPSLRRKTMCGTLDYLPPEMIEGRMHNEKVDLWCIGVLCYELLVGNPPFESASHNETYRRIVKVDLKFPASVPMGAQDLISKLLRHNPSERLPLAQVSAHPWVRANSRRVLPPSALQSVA
Sequence of BTK (human) (Q06187 whole entry, looked up): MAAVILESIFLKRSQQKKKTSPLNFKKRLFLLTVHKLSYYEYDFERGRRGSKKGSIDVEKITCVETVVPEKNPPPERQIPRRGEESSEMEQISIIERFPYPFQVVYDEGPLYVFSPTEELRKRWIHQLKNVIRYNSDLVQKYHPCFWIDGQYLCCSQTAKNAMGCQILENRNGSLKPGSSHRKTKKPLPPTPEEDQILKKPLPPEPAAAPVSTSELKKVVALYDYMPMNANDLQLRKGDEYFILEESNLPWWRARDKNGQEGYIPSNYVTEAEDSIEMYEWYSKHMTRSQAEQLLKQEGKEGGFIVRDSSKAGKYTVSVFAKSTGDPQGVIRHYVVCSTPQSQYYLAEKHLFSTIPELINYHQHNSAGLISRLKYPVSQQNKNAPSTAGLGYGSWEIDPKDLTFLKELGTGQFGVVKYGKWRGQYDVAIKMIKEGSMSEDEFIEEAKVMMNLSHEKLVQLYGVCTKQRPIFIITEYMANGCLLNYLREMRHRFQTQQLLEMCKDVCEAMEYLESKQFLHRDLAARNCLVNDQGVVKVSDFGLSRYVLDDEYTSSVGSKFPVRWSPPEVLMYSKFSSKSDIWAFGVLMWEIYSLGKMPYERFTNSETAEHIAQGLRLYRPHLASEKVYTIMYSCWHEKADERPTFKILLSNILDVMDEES
Sequence of CAMKK2 (human) (Q96RR4 whole entry, looked up): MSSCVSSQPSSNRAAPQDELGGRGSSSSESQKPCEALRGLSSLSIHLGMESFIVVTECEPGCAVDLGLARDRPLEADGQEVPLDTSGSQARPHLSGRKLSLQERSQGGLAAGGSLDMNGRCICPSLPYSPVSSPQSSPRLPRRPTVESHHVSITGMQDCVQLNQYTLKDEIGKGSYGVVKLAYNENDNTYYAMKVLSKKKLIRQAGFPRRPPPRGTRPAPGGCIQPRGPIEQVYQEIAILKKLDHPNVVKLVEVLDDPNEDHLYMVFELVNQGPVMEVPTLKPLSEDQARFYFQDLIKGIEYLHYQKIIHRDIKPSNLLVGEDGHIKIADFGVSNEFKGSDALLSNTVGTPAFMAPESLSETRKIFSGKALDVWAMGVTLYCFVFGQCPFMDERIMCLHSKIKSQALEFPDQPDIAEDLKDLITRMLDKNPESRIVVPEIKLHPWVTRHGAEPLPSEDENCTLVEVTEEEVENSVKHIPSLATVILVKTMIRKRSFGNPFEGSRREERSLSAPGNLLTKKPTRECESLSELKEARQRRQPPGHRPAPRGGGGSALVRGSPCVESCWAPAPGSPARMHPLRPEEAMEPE
Sequence of MAPK11 (human) (Q15759 whole entry, looked up): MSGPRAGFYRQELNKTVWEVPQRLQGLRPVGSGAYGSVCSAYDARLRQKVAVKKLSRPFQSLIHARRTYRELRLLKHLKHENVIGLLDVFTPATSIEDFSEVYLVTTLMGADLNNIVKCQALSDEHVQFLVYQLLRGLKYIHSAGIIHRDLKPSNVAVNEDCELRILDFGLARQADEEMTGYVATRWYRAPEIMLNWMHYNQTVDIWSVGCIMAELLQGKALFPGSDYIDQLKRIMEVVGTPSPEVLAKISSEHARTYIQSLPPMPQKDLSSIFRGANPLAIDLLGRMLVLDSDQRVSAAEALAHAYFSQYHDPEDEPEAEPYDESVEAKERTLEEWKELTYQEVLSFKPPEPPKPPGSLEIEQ
Sequence of CHEK1 (human) (O14757 whole entry, looked up): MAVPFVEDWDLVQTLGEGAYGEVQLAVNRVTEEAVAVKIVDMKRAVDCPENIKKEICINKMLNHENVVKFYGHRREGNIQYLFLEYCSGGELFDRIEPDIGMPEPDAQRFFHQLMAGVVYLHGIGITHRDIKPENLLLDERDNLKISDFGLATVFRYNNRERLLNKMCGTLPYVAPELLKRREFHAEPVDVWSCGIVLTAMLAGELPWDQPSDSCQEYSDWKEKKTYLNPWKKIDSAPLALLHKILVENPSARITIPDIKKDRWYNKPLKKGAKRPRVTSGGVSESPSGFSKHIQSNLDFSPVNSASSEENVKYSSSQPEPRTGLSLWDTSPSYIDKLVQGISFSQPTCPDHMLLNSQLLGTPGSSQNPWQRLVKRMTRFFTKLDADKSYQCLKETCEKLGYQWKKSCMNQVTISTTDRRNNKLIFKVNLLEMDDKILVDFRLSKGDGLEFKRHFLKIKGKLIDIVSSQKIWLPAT
Sequence of PLK1 (human) (P53350 whole entry, looked up): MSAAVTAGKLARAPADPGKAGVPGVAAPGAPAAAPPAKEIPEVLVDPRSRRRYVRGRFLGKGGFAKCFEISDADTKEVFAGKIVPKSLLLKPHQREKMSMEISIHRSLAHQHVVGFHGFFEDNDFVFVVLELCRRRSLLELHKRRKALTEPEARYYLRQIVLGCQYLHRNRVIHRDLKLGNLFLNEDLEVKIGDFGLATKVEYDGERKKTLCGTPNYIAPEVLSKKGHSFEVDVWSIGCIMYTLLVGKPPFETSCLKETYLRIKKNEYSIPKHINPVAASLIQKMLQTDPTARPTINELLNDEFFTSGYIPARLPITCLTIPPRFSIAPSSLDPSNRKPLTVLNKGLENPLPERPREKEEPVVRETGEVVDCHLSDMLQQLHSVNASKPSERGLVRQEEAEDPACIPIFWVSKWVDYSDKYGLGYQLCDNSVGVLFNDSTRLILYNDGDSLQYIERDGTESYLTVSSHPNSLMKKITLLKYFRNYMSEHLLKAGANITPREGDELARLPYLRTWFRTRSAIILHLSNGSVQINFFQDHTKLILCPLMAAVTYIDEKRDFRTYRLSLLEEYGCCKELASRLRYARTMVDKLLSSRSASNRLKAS

In the case of CC(C)n1nc(-c2cc3cc(O)ccc3[nH]2)c2c(N)ncnc21, the per cent of control (PLK1 (human); compound 1.0 µM) is reported as 89%, the per cent of control (PLK1 (human); compound 10.0 µM) is reported as 47% and the per cent of control (PRKACA (human); compound 1.0 µM) is reported as 94%. It also gave a per cent of control (PRKACA (human); compound 10.0 µM) of 45%, a per cent of control (CDK2 CCNA2 (human); compound 1.0 µM) of 78% and a per cent of control (CDK2 CCNA2 (human); compound 10.0 µM) of 40%. The per cent of control (HIPK2 (human); compound 1.0 µM) was 26%, the per cent of control (HIPK2 (human); compound 10.0 µM) was 7% and the per cent of control (MARK3 (human); compound 1.0 µM) was 67%. For the same compound, the per cent of control (MARK3 (human); compound 10.0 µM) was 31%, the per cent of control (PDPK1 (human); compound 1.0 µM) was 83% and 93% and the per cent of control (PDPK1 (human); compound 10.0 µM) was 60% and 71%. For the same compound, the per cent of control (MAPKAPK2 (human); compound 1.0 µM) was 96%, the per cent of control (MAPKAPK2 (human); compound 10.0 µM) was 94% and the per cent of control (FLT1 (human); compound 1.0 µM) was 11%. For the same compound, the per cent of control (FLT1 (human); compound 10.0 µM) was 2%, the per cent of control (MAPK11 (human); compound 1.0 µM) was 91% and the per cent of control (MAPK11 (human); compound 10.0 µM) was 77%. The per cent of control (AURKB (human); compound 1.0 µM) was 78%, the per cent of control (AURKB (human); compound 10.0 µM) was 27% and the per cent of control (PRKCA (human); compound 1.0 µM) was 13%. The per cent of control (PRKCA (human); compound 10.0 µM) was 9%, the per cent of control (PKN2 (human); compound 1.0 µM) was 68% and the per cent of control (PKN2 (human); compound 10.0 µM) was 22%. For the same compound, the per cent of control (IKBKE (human); compound 1.0 µM) was 86%, the per cent of control (IKBKE (human); compound 10.0 µM) was 64% and the per cent of control (IGF1R (human); compound 1.0 µM) was 103%. For the same compound, the per cent of control (IGF1R (human); compound 10.0 µM) was 89%, the per cent of control (EPHB3 (human); compound 1.0 µM) was 18% and the per cent of control (EPHB3 (human); compound 10.0 µM) was 5%. The per cent of control (SYK (human); compound 1.0 µM) was 89%, the per cent of control (SYK (human); compound 10.0 µM) was 61% and the per cent of control (CHEK2 (human); compound 1.0 µM) was 31%. It also gave a per cent of control (CHEK2 (human); compound 10.0 µM) of 2%, a per cent of control (MELK (human); compound 1.0 µM) of 26% and a per cent of control (MELK (human); compound 10.0 µM) of 13%. The per cent of control (GSK3B (human); compound 1.0 µM) was 103%, the per cent of control (GSK3B (human); compound 10.0 µM) was 60% and the per cent of control (PRKCZ (human); compound 1.0 µM) was 91%. It also gave a per cent of control (PRKCZ (human); compound 10.0 µM) of 51%, a per cent of control (PAK4 (human); compound 1.0 µM) of 88% and a per cent of control (PAK4 (human); compound 10.0 µM) of 28%. The per cent of control (BTK (human); compound 1.0 µM) was 20%, the per cent of control (BTK (human); compound 10.0 µM) was 5% and the per cent of control (IKBKB (human); compound 1.0 µM) was 85%. For the same compound, the per cent of control (IKBKB (human); compound 10.0 µM) was 84%, the per cent of control (MAPK12 (human); compound 1.0 µM) was 96% and the per cent of control (MAPK12 (human); compound 10.0 µM) was 72%. It also gave a per cent of control (SRPK1 (human); compound 1.0 µM) of 86%, a per cent of control (SRPK1 (human); compound 10.0 µM) of 63% and a per cent of control (ROCK2 (rat); compound 1.0 µM) of 105%. For the same compound, the per cent of control (ROCK2 (rat); compound 10.0 µM) was 77%, the per cent of control (MAPK8 (human); compound 1.0 µM) was 94% and the per cent of control (MAPK8 (human); compound 10.0 µM) was 103%. For the same compound, the per cent of control (CHEK1 (human); compound 1.0 µM) was 91%, the per cent of control (CHEK1 (human); compound 10.0 µM) was 34% and the per cent of control (MAP2K1 (human); compound 1.0 µM) was 25%. The per cent of control (MAP2K1 (human); compound 10.0 µM) was 10%, the per cent of control (DYRK2 (human); compound 1.0 µM) was 17% and the per cent of control (DYRK2 (human); compound 10.0 µM) was 7%. It also gave a per cent of control (PRKAA1 or PRKAA2 (rat); compound 1.0 µM) of 70%, a per cent of control (PRKAA1 or PRKAA2 (rat); compound 10.0 µM) of 28% and a per cent of control (CAMKK2 (human); compound 1.0 µM) of 72%. For the same compound, the per cent of control (CAMKK2 (human); compound 10.0 µM) was 30%, the per cent of control (MAPKAPK5 (human); compound 1.0 µM) was 97% and the per cent of control (MAPKAPK5 (human); compound 10.0 µM) was 92%. It also gave a per cent of control (FGFR1 (human); compound 1.0 µM) of 14% and a per cent of control (FGFR1 (human); compound 10.0 µM) of 2%.

For COc1ccc(-c2ccc3c(N4CCOCC4)nc(N4C[C@@H](C)O[C@@H](C)C4)nc3n2)cc1CO, the per cent of control (PLK1 (human); compound 1.0 µM) was 76%, the per cent of control (PLK1 (human); compound 10.0 µM) was 94% and the per cent of control (PRKACA (human); compound 1.0 µM) was 115%. It also gave a per cent of control (PRKACA (human); compound 10.0 µM) of 85%, a per cent of control (CDK2 CCNA2 (human); compound 1.0 µM) of 89% and a per cent of control (CDK2 CCNA2 (human); compound 10.0 µM) of 90%. The per cent of control (HIPK2 (human); compound 1.0 µM) was 89%, the per cent of control (HIPK2 (human); compound 10.0 µM) was 89% and the per cent of control (MARK3 (human); compound 1.0 µM) was 93%. The per cent of control (MARK3 (human); compound 10.0 µM) was 93%, the per cent of control (PDPK1 (human); compound 1.0 µM) was 80% and 89% and the per cent of control (PDPK1 (human); compound 10.0 µM) was 91% and 101%. The per cent of control (MAPKAPK2 (human); compound 1.0 µM) was 98%, the per cent of control (MAPKAPK2 (human); compound 10.0 µM) was 81% and the per cent of control (FLT1 (human); compound 1.0 µM) was 92%. For the same compound, the per cent of control (FLT1 (human); compound 10.0 µM) was 92%, the per cent of control (MAPK11 (human); compound 1.0 µM) was 106% and the per cent of control (MAPK11 (human); compound 10.0 µM) was 83%. For the same compound, the per cent of control (AURKB (human); compound 10.0 µM) was 86%, the per cent of control (PRKCA (human); compound 1.0 µM) was 106% and the per cent of control (PRKCA (human); compound 10.0 µM) was 86%. For the same compound, the per cent of control (PKN2 (human); compound 1.0 µM) was 95%, the per cent of control (PKN2 (human); compound 10.0 µM) was 105% and the per cent of control (IKBKE (human); compound 1.0 µM) was 99%. The per cent of control (IKBKE (human); compound 10.0 µM) was 100%, the per cent of control (IGF1R (human); compound 1.0 µM) was 117% and the per cent of control (IGF1R (human); compound 10.0 µM) was 89%. For the same compound, the per cent of control (EPHB3 (human); compound 1.0 µM) was 100%, the per cent of control (EPHB3 (human); compound 10.0 µM) was 78% and the per cent of control (SYK (human); compound 1.0 µM) was 88%. It also gave a per cent of control (SYK (human); compound 10.0 µM) of 83%, a per cent of control (MELK (human); compound 1.0 µM) of 91% and a per cent of control (MELK (human); compound 10.0 µM) of 72%. The per cent of control (GSK3B (human); compound 1.0 µM) was 95%, the per cent of control (GSK3B (human); compound 10.0 µM) was 91% and the per cent of control (PRKCZ (human); compound 1.0 µM) was 87%. The per cent of control (PRKCZ (human); compound 10.0 µM) was 84%, the per cent of control (PAK4 (human); compound 1.0 µM) was 11% and the per cent of control (PAK4 (human); compound 10.0 µM) was 75%. The per cent of control (BTK (human); compound 1.0 µM) was 85%, the per cent of control (BTK (human); compound 10.0 µM) was 81% and the per cent of control (IKBKB (human); compound 1.0 µM) was 104%. The per cent of control (IKBKB (human); compound 10.0 µM) was 89%, the per cent of control (MAPK12 (human); compound 1.0 µM) was 89% and the per cent of control (MAPK12 (human); compound 10.0 µM) was 91%. It also gave a per cent of control (SRPK1 (human); compound 1.0 µM) of 101%, a per cent of control (SRPK1 (human); compound 10.0 µM) of 94% and a per cent of control (ROCK2 (rat); compound 1.0 µM) of 75%. The per cent of control (ROCK2 (rat); compound 10.0 µM) was 86%, the per cent of control (MAPK8 (human); compound 1.0 µM) was 80% and the per cent of control (MAPK8 (human); compound 10.0 µM) was 93%. It also gave a per cent of control (CHEK1 (human); compound 1.0 µM) of 87%, a per cent of control (CHEK1 (human); compound 10.0 µM) of 86% and a per cent of control (MAP2K1 (human); compound 1.0 µM) of 96%. It also gave a per cent of control (MAP2K1 (human); compound 10.0 µM) of 43%, a per cent of control (DYRK2 (human); compound 1.0 µM) of 92% and a per cent of control (DYRK2 (human); compound 10.0 µM) of 96%. For the same compound, the per cent of control (PRKAA1 or PRKAA2 (rat); compound 1.0 µM) was 97%, the per cent of control (PRKAA1 or PRKAA2 (rat); compound 10.0 µM) was 106% and the per cent of control (CAMKK2 (human); compound 1.0 µM) was 108%. The per cent of control (CAMKK2 (human); compound 10.0 µM) was 94%, the per cent of control (MAPKAPK5 (human); compound 1.0 µM) was 67% and the per cent of control (MAPKAPK5 (human); compound 10.0 µM) was 87%. The per cent of control (FGFR1 (human); compound 1.0 µM) was 102% and the per cent of control (FGFR1 (human); compound 10.0 µM) was 87%.
